Source: US11560384B2, “Benzonorbornadiene derivatives and reactions thereof” (University of Utah Research Foundation, priority 2017, dated 2023)
“And” between values parts separate entries of the source, which are not always exact repeats. Identical values can stand only once. “Also recorded” adds a separate entry of the source.

Tests used:
[1] = Second-order reaction kinetics with tetrazine DPTz (UV-Vis absorbance at 525 nm); type: physicochemical; settings: for Second-order rate constant (k2): with DPTz, 37° C., λabs = 525 nm
Description: (§1) UV-VIS photospectrometic kinetic measurements were performed on a BioTek Synergy HT Microplate Reader (BioTek, USA) in a 96-well plate formate. In further detail, for analysis of reaction kinetics in DMSO and DMSO/H2O (9:1, v/v), stock solutions of benzonorbornadiene derivatives 1-3 (60 mM or 12.5 mM) and tetrazine (15 mM or 2.5 mM) in DMSO were prepared. Final solutions containing tetrazine (2 mM or 0.25 mM) and 1-3 (20 mM, 30 mM, 40 mM and 50 mM or 2.5 mM, 3.75 mM, 5 mM, 6.25 mM) were prepared in 96-well plates and thoroughly mixed at 37° C. for UV-Vis measurements. For analysis of reaction kinetics in DMSO/PBS (3:2, v/v), final solutions containing tetrazine (0.05 mM) and 1-2 (0.5 mM), tetrazine alone (0.05 mM) were prepared in 96-well plates and thoroughly mixed at 37° C. for UV-Vis measurements. The reactions were monitored at 525 nm, which is a local absorbance maximum of tetrazine. All kinetic experiments were run in triplicates. Pseudo-first order curve fitting was performed with Origin 8.0 software using the exponential formula: y=A1×e^kx+y0.

[2] = Second-order reaction kinetics with tetrazine PEG-Tz (UV-Vis absorbance at 525 nm); type: physicochemical; settings: 37° C., λabs = 525 nm
Description: as §1

[3] = Stability in human serum (PBS:Serum 1:1), HPLC; type: in vitro ADME; settings: 50 μM in PBS:Serum (1:1), 37° C., 5 up to 48 h, 2 up to 7 days
Description: Stability studies of prodrug 5 in PBS:Serum were performed as follows. Stock solutions of prodrug 5 (2.5 mM) in DMSO were prepared. Aliquots of 5 stock solution (20 μL), 0.01 M PBS (480 μL) and human serum (500 μL) (Sigma-Aldrich, USA) were combined to give final concentrations of 50 μM for the 5 in PBS: Serum (1:1, v/v). The sample was thoroughly mixed and incubated at 37° C. in the dark and subsequently a 50 μL aliquot of the sample was taken at indicated time points (5 min, 6 h, 24 h and 48 h) and quenched by 200 μL ice cold acetonitrile, followed by centrifugation at 13300 rpm for 5 min. The supernatant was injected and analyzed by HPLC at 480 nm.
Stability studies of compound 2 were performed as follows. Stock solutions of 2 (2.5 mM) in DMSO were prepared. Aliquots of 2 stock solution (20 μL), 0.01 M PBS (480 μL) and human serum (500 μL) (Sigma-Aldrich, USA) were combined to give final concentrations of 50 μM for the 2 in PBS: Serum (1:1, v/v). The sample was thoroughly mixed and incubated at 37° C. in the dark and subsequently a 50 μL aliquot of the sample was taken at indicated time points (5 min, 6 h, 24 h, 48 h, 72 h and 7 days) and quenched by 200 μL ice cold acetonitrile, followed by centrifugation at 13300 rpm for 5 min. The supernatant was injected and analyzed by HPLC at 317 nm.

A549 lung cancer cells = assay: Cell proliferation / cytotoxicity assay (CellTiter-Glo); type: cell-based; settings: compound alone
Description: Cell proliferation assays were performed on an Envision 2104 Multilabel Reader (PerkinElmer, USA). Specifically, A549 lung cancer cells (ATCC, USA) were maintained in a humidified CO2 (5%) incubator at 37° C. in DMEM (Thermo Fisher, USA) supplemented with 10% fetal bovine serum in the presence of 1% Penicillin-Streptomycin-Glutamine (Thermo Fisher, USA) and 0.2% Normocin (InvivoGen, USA). The cells were plated in 96-well TC treated plates (PerkinElmer, USA) at a 5000 cells/well density 24 h prior to the experiment. Prodrug 5, compound 2 (2 mM in DMSO) and PEG-Tz (40 mM in DMSO) were serially diluted in pre-warmed culture medium. Prodrug 5 and compound 2 are in a series of final concentrations ranging from 0.001 to 10 μM with 200 μM, 100 μM, 50 μM, 25 μM PEG-Tz before the experiment and added to the wells (100 μL final volume per well). Doxorubicin was used as the positive control with same series of concentrations ranging from 0.001 to 10 μM. […] After 72 h incubation at 37° C., cell proliferation was assessed by a CellTiter-Glo® viability assay. Lyophilized CellTiter Glo Substrate (Promega, USA) was dissolved in the CellTiter Glo Buffer to get CellTiter-Glo® Reagent, and from which 100 μL was added to each well. After 15 min incubation at 25° C., the medium was gently measured with Envision 2104 Multilabel Reader (PerkinElmer, USA) to get the luminescent based on quantitation of the ATP present, an indicator of metabolically active cells. The proliferation assay was performed in triplicate (n=3). EC50 values were derived from the normalized cell growth and corresponding sigmoidal curves were fitted and generated with Origin 8.0.

Compound	Second-order rate constant (k2) ([1]; 90% DMSO/H2O)	Second-order rate constant (k2) ([1]; DMSO)	Second-order rate constant (k2) ([2]; 60% DMSO/PBS (3:2))	Second-order rate constant (k2) ([2]; 90% DMSO/H2O) [M⁻¹ s⁻¹]	further results
O=C(Nc1ccc([N+](=O)[O-])cc1)OCC12C=CC(O1)c1ccccc12 (stereo not drawn) [compound 1]	0.028 M⁻¹ s⁻¹ and 0.028 ± 0.0003 M⁻¹ s⁻¹	0.015 M⁻¹ s⁻¹ and 0.015 ± 0.008 M⁻¹ s⁻¹	0.190 M⁻¹ s⁻¹ and 0.190 ± 0.029 M⁻¹ s⁻¹	0.058 ± 0.0003	Decrease of reaction rate with DPTz relative to 7-oxo-BNBD (6) ([1]; DMSO): ~12 fold
7-oxo-BNBD [compound 6, reference compound]	–	0.176 M⁻¹ s⁻¹ and 0.176 ± 0.004 M⁻¹ s⁻¹	–	–	–
CC(=O)N1C2C=CC1(COC(=O)Nc1ccc([N+](=O)[O-])cc1)c1ccccc12 (stereo not drawn) [compound 2]	0.017 M⁻¹ s⁻¹ and 0.017 ± 0.002 M⁻¹ s⁻¹	0.010 M⁻¹ s⁻¹ and 0.010 ± 0.0004 M⁻¹ s⁻¹	0.135 M⁻¹ s⁻¹ and 0.135 ± 0.010 M⁻¹ s⁻¹	0.020 ± 0.0007	Stability in human serum [3]: completely stable until the end of the analysis at one week; Unspecific payload release in human serum [3]: No free p-Nitroaniline or p-Nitroaniline-containing side products were observed; also recorded: no traces of pNA were formed; also recorded: No background liberation of reporter molecules was observed
CC(C)(C)OC(=O)N1C2C=CC1(COC(=O)Nc1ccc([N+](=O)[O-])cc1)c1ccccc12 (stereo not drawn) [compound 3, tert-butyl 1-((((4-nitrophenyl)carbamoyl)oxy)methyl)-1,4-dihydro-1,4-epiminonaphthalene-9-carboxylate]	0.0084 M⁻¹ s⁻¹ and 0.0084 ± 0.0016 M⁻¹ s⁻¹	0.0044 M⁻¹ s⁻¹ and 0.0044 ± 0.00009 M⁻¹ s⁻¹	–	–	–
COc1cccc2c1C(=O)c1c(O)c3c(c(O)c1C2=O)C[C@@](O)(C(=O)CO)C[C@@H]3O[C@H]1C[C@H](N)[C@H](O)[C@H](C)O1 [Doxorubicin, reference compound]	–	–	–	–	EC50 (A549 lung cancer cells; Homo sapiens, A549): 88 nM; EC50 (A549 lung cancer cells; Homo sapiens, A549, 72 hour incubation at 37° C.): 88 ± 31 nM
COCCOCCOCCNC(=O)c1ccc(-c2nncnn2)cc1 [PEG-Tz, N-(2-(2-(2-methoxyethoxy)ethoxy)ethyl)-4-(1,2,4,5-tetrazin-3-yl) benzamide]	–	–	–	–	EC50 (A549 lung cancer cells; 72 hour incubation at 37° C.): > 200000 nM; Cytotoxicity in A549 cells (A549 lung cancer cells; tested concentration range (PEG-Tz 0.02 to 200 μM; 5 0.001 to 10 μM)): no obvious toxicity; also recorded: no cytotoxicity
